Reference: patent US11739132B2, “Separation moieties and methods of use thereof” (Werewolf Therapeutics, Inc., priority 2019, dated 2023)
No end group written: not given here.

Experiments:
[1] = system: cell lysates of MC38, CT26, CT26-MMP9+ and myofibroblast cell lines; assay: FRET assay of cell lysates (cell-associated activity); assay type: biochemical, mouse; details: for Cleavage activity detected in cell lysates: four cell lines
Source text: (§1) Conditioned media and cell lysate samples were received from Charles River Laboratories for the murine colon cancer cell lines: MC38 (epithelial), CT26 (fibroblast), and CT26 transduced with a lentivirus for doxycyclin-inducible expression of MMP9 (CT26 pLVX MMP9-5T4+dox). An immortalized mouse intestinal myofibroblast cell line (ABM Good #T0565) was used as a control stromal cell line, grown under manufacturer recommended conditions. Conditioned media and cell lysate samples were also received for screening purposes from ABM Good for the immortalized mouse colonic epithelial cell line YAMC (ABM Good #T0567).
(§2) Conditioned media samples were prepared according to the standard protocol using logarithmic phase cells. Briefly, cells were grown for 16h in either serum-free media or in complete media containing 10% fetal bovine serum (FBS). After conditioned media collection, the adherent cells were washed then lysed on plate with non-denaturing lysis buffer to produce a lysed “cell pellet” to capture any activity that remained associated with the cells. All cell culture-derived conditioned media samples, cell lysates from Charles River Laboratories, and cell lysates derived internally were processed with identical methods, to allow comparison between samples.
To test for cell pellet-associated FAPa activity, the cell lysates were clarified by ultracentrifugation and then assayed neat in the FRET assay. […] A modest 2-fold greater activity was detected in the three tumor cell lines over the myofibroblast cell line. For comparison, CTSL1 activity was also tested in the cell lysates. CTSL1 is a lysosomal enzyme; therefore, activity toward CTSL1_1 was expected to be similarly abundant in all four cell lines. The ratio of CTSL1_1 cleavage in tumor vs control cell lines in this screening format was ˜1× (grey bars, left-hand bar of each pair, FIG. 41). FAPα (fibroblast activating protein-alpha) is a marker for fibroblast (CT26) and myofibroblast cell lines.

[2] = biological target: T1, CTSL1 (Homo sapiens, UniProt P07711); assay: 30-mer tandem linker library MSP-MS, CTSL1; assay type: biochemical
T1 sequence (P07711 114-333): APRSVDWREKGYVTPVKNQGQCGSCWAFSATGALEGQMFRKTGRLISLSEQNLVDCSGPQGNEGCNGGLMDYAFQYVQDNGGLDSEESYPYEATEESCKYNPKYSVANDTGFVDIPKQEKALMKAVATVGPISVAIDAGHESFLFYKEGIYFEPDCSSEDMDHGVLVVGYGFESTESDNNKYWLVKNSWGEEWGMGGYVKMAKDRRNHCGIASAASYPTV
Description: (§3) Protease specificity screening was performed using Multiplexed Substrate Profiling by Mass Spectrometry (MSP-MS), the method described in, e.g. O'Donoghue A. J. et al., Nat Methods., 2012; 9(11): 1095-1100. This method employs a physico-chemically diverse peptide library as substrates for proteases, and reactions are monitored over time with mass spectrometric detection of cleaved products. The resulting cleavages are assessed for specific cleavage in the enzyme-treated sample by comparison with results from a no-enzyme control incubation.
(§4) Enzymes were activated and assayed following the manufacturer's recommendations.
(§5) For CTSL1, enzyme was activated by pre-incubation in assay buffer (50 mM MES, 5 mM DTT, 1 mM EDTA, pH=6) for 15 min. MSP-MS reactions were then started with the mixing of enzyme and substrate, at final CTSL1 concentration of 0.04 ng/μl (0.77 nM), and peptide substrate concentration at 500 nM.
This hypothesis was tested in the context of the hybrid linker design experiment. Shown in FIG. 46 are the results of cleavage of two matched 30-mer peptides with the following sequences:
(§6) To analyze the catalytic efficiency of candidate tandem linker designs, a tailored library approach using MSP-MS was applied. For the tailored library, a set of nineteen synthetic peptides, 30 amino acids in length (30-mers), were designed to test whether sequence context affects the efficiency of cleavage. Peptides were assayed in a multiplex format together as a substrate library with individual recombinant enzymes, using MSP-MS. For quantitative comparisons, kinetic analysis was performed over a time course, and results are reported either as a catalytic efficiency kcat/KM for well-behaved first-order kinetics, or as observed rates as kobs for more complex kinetic behavior.
(§7) Catalytic efficiency (kcat/KM) estimations were used to rank the top cleaved substrates in the MSP-MS reaction. Peptides were quantified by mass spectrometric label-free quantitation from the MS1 precursor ion peak areas for each peptide. Enzyme progress curves were modeled from six-time point measurements in GraphPad Prism. Data were fitted using non-linear least squares fitting to the first order kinetics equation:
(§8) [formula] where Y=percent product formation or substrate consumption, and t=time. The observed rate is a function of the enzyme concentration [E0], and an observed catalytic efficiency (kcat/KM) in units M^−1s^−1

[3] = system: conditioned media from tumor, myofibroblast and YAMC cell lines; assay: FRET steady-state kinetics of conditioned media (enzyme equivalents); assay type: biochemical, mouse; details: for Secreted activity in conditioned media, steady-state kinetics: tumor cell lines
Source text: as §1
(§9) In the end-point screening assays, a fixed titer of 10× concentrated sample and a substrate concentration of 10 μM was used. Values reported in the end-point experiments are initial velocity measurements, in relative fluorescence units (RFU) per second. End-point measurements are a starting point for a screen, but the rate of the reaction is non-linearly related to substrate concentration. Therefore, a more accurate representation of activity would be given by steady-state kinetic measurements covering a range of substrate concentrations. To compare activity across cell lines, the data were treated with a Michaelis-Menten model, and the concentration of equivalent enzyme units [E0] was solved.
Accordingly, initial velocity was measured as a function of substrate concentration, using a 2-fold dilution series from 250 to 1 μM. Data were fitted using non-linear least squares fitting with GraphPad Prism software v 8.0 to the Michaelis-Menten equation:
[formula] where kcat is the rate of product formation under steady-state conditions in units (s^−1), and KM is the Michaelis constant that gives the substrate concentration in molar units (M) at which half maximum velocity of the reaction is produced for a given enzyme, [E0] is the enzyme concentration, and [S] the substrate concentration in (M).
In the assays where purified recombinant enzyme is used, the Michaelis-Menten parameters are as classically defined above. For conditioned media samples, the effective titer of conditioned media per assay was adjusted to approximately a 2× concentrate of the original unprocessed media samples to assure that the detection range matched the signal produced. The enzyme component in the calculation is redefined as a mixture of possible proteases that contribute to the cumulative observed activity, each with intrinsic reactivity toward a substrate. In this case, it is more appropriate to consider kcat and KM as macroscopic constants that represent the overall efficiency of catalysis, and E0 is an enzyme equivalent, expressed in units of concentration. To solve the data fit, kcat/KM can be fixed at that of the recombinant enzyme and enzyme equivalents per cell culture volume can be output. The effective titer of enzyme equivalents in this case can be used to compare the activity produced by the different cell lines.
An immortalized mouse colonic epithelial cell line (YAMC) was used to test activity in the presence of additional control “normal” epithelial cells. YAMC's are given the calculated enzyme equivalents (nM) resulting from all of these steady state experiments, to allow for comparison of the amount of equivalent activity per sample. For example, the YAMC control epithelial cell line produced activity with the ADAM17_2 substrate equivalent to that of 0.52±0.03 nM of ADAM17 recombinant enzyme. This cell line compares directly to MC38, also of epithelial origin, which had activity equivalent to that of 0.32±0.03 nM of ADAM17 recombinant enzyme. […] This cell line required non-standard cell culture conditions, including growth with murine IFNγ, and at low temperature to maintain, and may not be fully representative of epithelial cell lines.

[4] = biological target: T1, CTSL1; assay: In vitro FRET kinetics with CTSL1; assay type: biochemical; details: 8-mer FRET peptide, Mca/Dnp pair
Description: as §4, §5
Additional in vitro kinetic experiments were performed to characterize a new candidate motif for CTSL1 enzyme; the CTSL1_2 motif has the sequence […] (SEQ ID NO: 199). […] Yet, initial experiments with the CTSL1_2 FRET substrate were inconclusive, possibly due to artifacts in the FRET assay; therefore, a new FRET peptide construct was designed with the 9-mer sequence […] (SEQ ID NO: 236).
All of the FRET substrates used in these studies have a methoxycoumarin (Mca) fluorophore and dinitrophenyl-lysyl (Dnp) quencher pair at the N- and C-termini of the sequences, respectively.

[5] = system: conditioned media from MC38, CT26, CT26 pLVX MMP9-5T4+dox and myofibroblast cell lines; assay: FRET end-point screen of conditioned media; assay type: biochemical, mouse; details: conditioned media
Source text: Proteolytic activity was screened in the conditioned media samples by fluorescent resonance energy transfer (FRET) assays with the substrates listed in Table 10.
as §1, §2
The resulting conditioned media was buffer exchanged with PBS and concentrated to 10× the original titer as a stock solution.
FBS background controls were therefore used for baseline subtraction at each concentration of substrate throughout the FRET experiments.
as §9

[6] = biological target: T2, FAPα (Homo sapiens, UniProt Q12884); assay: 30-mer tandem linker library MSP-MS, FAPα; assay type: biochemical; details: at PGGP|AGIG and GP|AGLYAQ respectively
T2 construct: purchased R&D Systems (Bio-techne) 930-ADB-010
T2 sequence (Q12884 1-760): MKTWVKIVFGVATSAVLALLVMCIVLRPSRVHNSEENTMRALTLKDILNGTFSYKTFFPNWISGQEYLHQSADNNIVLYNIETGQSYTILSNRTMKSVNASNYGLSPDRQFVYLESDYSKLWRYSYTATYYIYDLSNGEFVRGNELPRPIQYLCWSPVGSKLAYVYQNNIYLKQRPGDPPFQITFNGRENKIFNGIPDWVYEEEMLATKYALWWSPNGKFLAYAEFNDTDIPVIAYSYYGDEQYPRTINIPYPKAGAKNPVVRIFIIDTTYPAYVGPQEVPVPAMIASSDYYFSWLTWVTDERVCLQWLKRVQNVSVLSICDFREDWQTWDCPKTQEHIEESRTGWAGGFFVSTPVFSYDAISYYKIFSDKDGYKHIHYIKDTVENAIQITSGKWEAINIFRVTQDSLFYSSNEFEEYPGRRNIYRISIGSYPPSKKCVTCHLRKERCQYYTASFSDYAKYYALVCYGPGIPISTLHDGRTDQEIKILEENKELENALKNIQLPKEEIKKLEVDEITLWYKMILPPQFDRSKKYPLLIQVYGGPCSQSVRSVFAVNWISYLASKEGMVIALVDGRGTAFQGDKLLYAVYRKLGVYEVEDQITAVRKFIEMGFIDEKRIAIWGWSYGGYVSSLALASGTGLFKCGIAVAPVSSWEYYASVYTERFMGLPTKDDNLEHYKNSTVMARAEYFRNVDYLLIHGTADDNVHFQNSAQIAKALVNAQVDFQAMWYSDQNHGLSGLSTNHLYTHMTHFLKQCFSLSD
Description: as §3, §4
FAPα activity was tested with fluorescence detection using a generic Z-GP-AMC substrate. For FRET assays, the final enzyme concentration was 5 nM and the buffer was 50 mM TRIS HCl, 1 M NaCl, 1 mg/mL BSA, pH 7.5.
as §6, §7, §8

[7] = biological target: T3, Thrombin (Homo sapiens, UniProt P00734); assay: 30-mer library counter-screening MSP-MS, Thrombin; assay type: biochemical
T3 construct: purchased R&D Systems (Bio-techne) 2196-SE-200
Description: as §3, §4
Thrombin was activated following the manufacturer's recommended conditions by pre-incubation with the enzyme with thermolysin for 15 min, and then the thermolysin was quenched with 1,10 phenanthroline treatment. Activated thrombin was assayed at 1.2 nM in activation buffer: 50 mM TRIS HCl, 10 mM CaCl2, 150 mM NaCl, 0.05% (w/v) Brij-35, pH 7.5.
(§10) Counter-screening was performed against the enzymes Thrombin, Factor Xa and Hepsin using this library as well, and for calibration of activity, a positive-control peptide bearing favorable motifs for these enzymes was also designed (ALU30-19).
as §7, §8
(§11) Counter-screening with Thrombin, Factor Xa and Hepsin was also performed following the same analysis. The library peptide Alu30-19 was designed to include authentic sites for each enzyme, for comparison of overall cleavage efficiency as well as cleavage site specificity within each motif. The substrate designed for Factor Xa has the motif FNPR|TFGS (SEQ ID NO: 248), derived from the Factor Xa cleavage site in Thrombin. The substrate motif for Thrombin was FPR|, a common tool substrate motif. The substrate motif for hepsin was RKRR|GSRG (SEQ ID NO: 249) from filaggrin.

[8] = biological target: T4, Hepsin (Homo sapiens, UniProt P05981); assay: 30-mer library counter-screening MSP-MS, Hepsin; assay type: biochemical
T4 construct: purchased R&D Systems (Bio-techne) 4776-SE
T4 sequence (P05981 163-417 limits assumed): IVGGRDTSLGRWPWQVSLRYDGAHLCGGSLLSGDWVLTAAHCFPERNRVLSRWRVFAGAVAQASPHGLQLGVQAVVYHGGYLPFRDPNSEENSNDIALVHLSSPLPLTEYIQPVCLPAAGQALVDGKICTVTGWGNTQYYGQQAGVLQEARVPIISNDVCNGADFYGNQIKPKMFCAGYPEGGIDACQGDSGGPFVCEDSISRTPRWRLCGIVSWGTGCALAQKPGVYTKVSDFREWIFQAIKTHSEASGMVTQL
T4 sequence (P05981 1-162 partner limits assumed): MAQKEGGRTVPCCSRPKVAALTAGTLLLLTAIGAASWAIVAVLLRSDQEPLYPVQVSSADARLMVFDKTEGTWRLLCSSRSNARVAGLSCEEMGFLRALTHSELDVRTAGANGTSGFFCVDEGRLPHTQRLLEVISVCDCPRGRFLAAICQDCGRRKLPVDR
Description: as §3, §4
Hepsin was pre-activated overnight at 37° C. in the manufacturer recommended buffer: 100 mM TRIS, 10 mM CaCl2, 150 mM NaCl, 0.05% Brij-35, pH 8.0. Activity was measured with 2.4 or 24 nM enzyme in the buffer: 50 mM TRIS HCl at pH 7.4.
as §10, §7, §8, §11

| Sequence | Cell-associated activity, MC38 vs other cell lines ([1]; cell lysates) | Ratio of cleavage in tumor vs control cell lines, cell lysates ([1]; cell lysates assayed neat) | Cleavage activity detected in cell lysates [1] | −1 site product formation by CTSL1 ([2]; matched 30-mer peptides SEQ ID NO: 207 (CTSL1_1) and 219 (CTSL1_2)) | Secreted activity in conditioned media, steady-state kinetics [3] | Cleavage of 8-mer FRET substrate by CTSL1 [4] | Substrate cleavage activity, CT26-MMP9+ cell line ([5]; end-point screen) | Substrate cleavage activity, MC38 and CT26 parental cell lines ([5]; end-point screen) | Substrate cleavage activity, control myofibroblast cell line ([5]; end-point screen) | Cell-associated activity in myofibroblasts ([1]; cell lysates) | Activity in three tumor cell lines over myofibroblast cell line, cell lysates ([1]; cell lysates assayed neat) | Cleavage of motif by FAPα [6] | Secreted activity in myofibroblast conditioned media, steady-state kinetics ([3]; myofibroblast) | Substrate cleavage activity in the end-point screen [5] | Relative efficiency of 30-mer peptide cleavage by CTSL1 [2] | Relative efficiency of 30-mer peptide cleavage by thrombin [7] | Relative efficiency of cleavage by hepsin [8] |
| --- | --- | --- | --- | --- | --- | --- | --- | --- | --- | --- | --- | --- | --- | --- | --- | --- | --- |
| ALFKSSFP (also: Mca fluorophore and Dnp quencher, places not given here) [CTSL1_1, FRET substrate with Mca fluorophore and Dnp quencher] | significantly greater in MC38 cells over the myofibroblast, CT26 parental, and CT26-MMP9+ cells | ~1 × | detected in all of the cell lysates | had a −1 site product | no measurable activity above background | highly efficiently | undetectable activity | low activity | undetectable activity |  |  |  |  |  |  |  |  |
| PGGPAGIG (also: Mca fluorophore and Dnp quencher, places not given here) [FAPα_1, FRET substrate with Mca fluorophore and Dnp quencher] |  |  | detected in all four cell lines |  | lower activity than that associated with the cell pellet |  |  |  |  | did have cell-associated activity | 2 fold | able to cleave | no measurable secreted activity | very low, but was still detected in all three tumor cell lines |  |  |  |
| RGGGPAGLYAQPLAQKLKSSALFKSSFPGG [Alu30-15] |  |  |  |  |  |  |  |  |  |  |  |  |  |  | lower CTSL1 activity | cleaved at lower efficiency | slightly higher hepsin susceptibility |
